Assay results published in US20250059232A1, “PENTAPEPTIDE AND USE THEREOF” (ENSOL BIOSCIENCES INC., priority 2021, published 2025).

Legend:
EL4 = EL4 cell viability (CCK-8) with doxorubicin; format: cell-based, mouse; conditions: 300 uM with doxorubicin 20 nM; 24 hours; p<0.05
Experimental: In order to investigate the cell viability by the combined administration of doxorubicin and the peptide of Example 1 compared to the group administered with only doxorubicin, which is an anticancer chemotherapeutic agent, experiments described below were conducted. 8×10^3 Cells of the mouse lymphoma cell line EL4 (ATCC) were seeded in 96 wells, which then were treated with doxorubicin 20 nM and peptide 300 uM of Example 1 for each condition. After 24 hours of culturing, the cell viability of the EL4 cells was measured by CCK-8 addition. FIG. 11 is a graph illustrating the changes in EL4 cell viability over culturing time in an anticancer effect evaluation test. In FIG. 11, the x-axis represents culturing time and the y-axis represents cell viability (%).

4T1 cells = experiment: Syngeneic model implanted with paclitaxel-resistant 4T1 cells: tumor volume, Western blot of cleaved PARP and LC3II; format: in vivo, mouse; conditions: for Reduction in tumor volume compared to the group administered with only paclitaxel: Balb/c mice, 3 weeks; for Increase in cleaved PARP expression level in tumor compared to paclitaxel-only group / Reduction in LC3II expression level in tumor compared to paclitaxel-only group: Western blot after 3-week administration
Experimental: Cell death and autophagy marker changes were determined by the Western blot method, using a syngeneic model implanted with 4T1 cells (American Type Culture Collection (ATCC)), which are mouse triple negative breast cancer tumor cells resistant to paclitaxel. The drug administration was started, when the tumor volume was reached to 70 mm^3 after a fat pad of Balb/c mice (6 weeks old, female) was transplanted with 4T1 cells in a concentration of 1×10^6 cells/head. For Week 1, paclitaxel 20 mg/kg was administered on Day 1 and Day 2, and the peptide (10, 100 mg/kg) of Example 1 was co-administered on Day 3, Day 5, and Day 7. In addition, the same process was performed for each of Week 2, and Week 3 (n=3). The tumor volumes were measured daily because the tumors grew very quickly. The changes in cleaved PARP, which is a cell death marker, and the changes in LC3II, which is an autophagy marker, in tumors were analyzed after necropsy on the day after the end of the 3-week administration, by a Western blot test.
FIG. 5 is a graph illustrating the results of tumor volume measurements according to the number of days after treatment in animal experimentation. In FIG. 5, the x-axis represents the number of days elapsed after treatment and the y-axis represents the tumor volume change (mm^3).
In addition, the changes in cleaved PARP, which is a cell death marker, are shown in FIG. 6, and the changes in LC3II, which is an autophagy marker, are shown in FIG. 7. FIG. 6 is a graph showing the changes in expression of cleaved PARP, which is a cell death marker, for each treatment group in animal experimentation, and FIG. 7 is a graph showing the changes in expression of LC3II, which is an autophagy marker, for each treatment group in animal experimentation.

PC3 = PC3 cell viability (CCK-8) in NK92 co-culture with anti-PD-1; format: cell-based, human; conditions: 100 or 300 uM with 10 μg/ml anti-PD-1, 48/72 hours, P<0.05
Experimental: The experiment described below was performed to evaluate the tumor cell proliferation inhibitory effect of the combination treatment of the peptide of Example 1 and anti-PD-1, which is another immune checkpoint inhibitor. First, 5×10^3 cells of a human prostate cancer cell line PC3 were seeded in 96 wells and stabilized by culturing overnight. Next, 5×10^3 NK92 cells were additionally seeded, and the test cells were treated with 10 μg/ml of the anti-PD-1 and 100 or 300 uM of the peptide of Example 1 for each condition. After 48/72 hours of co-culturing, the NK92 cells were removed by washing, and the cell viability of the PC3 cells was measured by CCK-8 addition. FIG. 18 is a graph illustrating changes in PC3 cell viability over culturing time for each test group in an anticancer effect evaluation test. In FIG. 18, the x-axis represents culturing time and the y-axis represents cell viability (%).

[1] = 10 mg/kg co-administered with paclitaxel
[2] = 100 mg/kg co-administered with paclitaxel, p<0.05

## Ac-QLHLD-OH [Example 1, acetyl-QLHLD]
EL4
  Cancer cell viability compared to the group treated with only doxorubicin: significant decrease in cancer cell viability
4T1 cells; 10 mg/kg co-administered with paclitaxel 20 mg/kg
  Reduction in tumor volume compared to the group administered with only paclitaxel: 20%
4T1 cells; [1]
  Increase in cleaved PARP expression level in tumor compared to paclitaxel-only group: 2 fold
  Reduction in LC3II expression level in tumor compared to paclitaxel-only group: 38%
4T1 cells; 100 mg/kg co-administered with paclitaxel 20 mg/kg
  Reduction in tumor volume compared to the group administered with only paclitaxel: 40%
4T1 cells; [2]
  Increase in cleaved PARP expression level in tumor compared to paclitaxel-only group: 3 fold
  Reduction in LC3II expression level in tumor compared to paclitaxel-only group: 86%
PC3
  Cancer cell viability compared to the checkpoint-inhibitor-only group: significant decrease
